From patent US20180146698A1, “FORMULA FEED FOR POULTRY” (JXTG Nippon Oil & Energy Corporation, priority 2015, published 2018)

Experiments:
[1] = tested on: chickens; test: Yolk carotenoid content and composition 2 (eggs of Examples 5 and 6); conditions: corn contents of 30% to 50%; 1 to 16 ppm; fed 2 to 4 weeks
[2] = tested on: chickens; test: Chicken egg color enhancement test 3: yolk color fan value, feeds with corn contents of 0% to 30%; assay type: in vivo; conditions: coloring agent 2 ppm or 4 ppm
Procedure: The effects of the present invention were confirmed using feeds with corn contents of 0% to 30% in the same manner as in Example 1.
Formula feeds were prepared by adding astaxanthin or t-capsanthin to feeds with the compositions listed in Table 7 so as to result in a final concentration of 2 ppm or 4 ppm. In this Example, the feeds were the same except the corn content and the content of brown rice, which is added depending on a decrease in the corn content, and corn-derived corn gluten meal was not mixed therein.

[3] = cited from earlier work
[4] = tested on: chickens; test: Yolk carotenoid content and composition 3 (eggs of Example 8); assay type: in vivo; conditions: 2 ppm or 4 ppm; corn contents of 0% to 30%; fed 2 to 4 weeks
Procedure: The yolk carotenoid concentration in eggs obtained in Example 8 was determined for five eggs for each test plot in the same manner as in Example 1.

[5] = cited from earlier work; remark: listed apart in the source
[6] = tested on: chickens; test: Chicken egg color enhancement test 2: yolk color fan value, feeds with corn contents of 30% to 50%; assay type: in vivo; conditions: for color fan value compared with t-capsanthin: corn contents of 30% and 50%
Procedure: The effects of the present invention were confirmed using feeds with corn contents of 30% to 50% in the same manner as in Example 1. Formula feeds were prepared by adding astaxanthin or t-capsanthin to feeds with the compositions listed in Table 5 so as to result in a final concentration of 1 to 16 ppm. In this Example, the feeds were the same except the corn content and the content of brown rice, which is added depending on a decrease in the corn content, and corn-derived corn gluten meal was not mixed therein. FIGS. 8a and 8b show the relationship between the astaxanthin and t-capsanthin concentrations in the feeds with corn contents of 30% and 50% and the yolk color fan values for the obtained eggs. Based on the results of FIGS. 8a and 8b, the concentrations of astaxanthin and t-capsanthin to be added to a feed in order to achieve a desired color fan value of 10 to 15 were calculated for feeds with corn contents of 30% and 50% (Table 6).

[7] = tested on: Julia Light hens; test: Yolk carotenoid concentration by HPLC, eggs of Example 1; assay type: in vivo, chickens; conditions: colorant added at 1 to 8 ppm
Procedure: Eggs were collected from each test plot. The color fan values of 10 chicken eggs were measured using Egg Multitester EMT-7300 (JA Z-Tamago Co., Ltd.) for each test plot. The yolk carotenoid concentration was determined for 3 eggs for each test plot.
Carotenoid quantities in the yolk and each feed were determined via high performance liquid chromatography (HPLC) as described below.
Two columns (Inertsil SIL-100A, 5 μm (ϕ 4.6×250 mm), GL Sciences) were connected in series for use. Elution was carried out with the introduction of an n-hexane/tetrahydrofuran/methanol liquid mixture (40:20:1) as a mobile phase at a constant temperature (around room temperature) and a flow rate of 1.0 mL per minute. Upon determination, samples were each dissolved in tetrahydrofuran and appropriately diluted with the mobile phase such that injection volume was adjusted to 20 μL. The detection for column eluate was carried out at a wavelength of 470 nm.
The yolk carotenoid concentration of eggs obtained in Example 1 was determined by the method described in Example 1 for three eggs for each test plot.
The standard-corn-content feed and the low-corn-content feed were compared in terms of the colorant concentration in the yolk when the coloring agents used in Example 1 were added to each feed at concentrations of 1 to 8 ppm.

[8] = desired CF value 10, 30% Corn feed
[9] = desired CF value 10, 50% Corn feed
[10] = desired CF value 11, 30% Corn feed
[11] = desired CF value 11, 50% Corn feed
[12] = desired CF value 12, 30% Corn feed
[13] = desired CF value 12, 50% Corn feed
[14] = desired CF value 13, 30% Corn feed
[15] = desired CF value 13, 50% Corn feed
[16] = desired CF value 14, 30% Corn feed
[17] = desired CF value 14, 50% Corn feed
[18] = desired CF value 15, 30% Corn feed
[19] = desired CF value 15, 50% Corn feed

CC1=C(/C=C/C(C)=C/C=C/C(C)=C/C=C/C=C(C)/C=C/C=C(C)/C=C/C2=C(C)C(=O)[C@@H](O)CC2(C)C)C(C)(C)C[C@H](O)C1=O [Astaxanthin, astaxanthin]
amount of colorant accumulated in the yolk in relation to corn content [1]: tended to increase as the corn content decreased | color fan value compared with t-capsanthin [2]: greater than that achieved by using t-capsanthin | singlet oxygen quenching activity, stronger compared with vitamin E [3]: about 500 fold | concentration transferred to the yolk compared with t-capsanthin [4]: greater than that of t-capsanthin | lipid peroxidation inhibition activity, stronger compared with vitamin E [5]: about 1000 fold | color fan value compared with t-capsanthin ([6]; coloring agent 1 to 8 ppm): greater than those obtained using t-capsanthin | color fan value compared with t-capsanthin ([6]; coloring agent 16 ppm): no significant difference | Astaxanthin/t-Capsanthin ratio [6, 8]: 62% | Colorant concentration in feed to achieve desired CF value [6, 8]: 1.3 ppm | Astaxanthin/t-Capsanthin ratio [6, 9]: 58% | Colorant concentration in feed to achieve desired CF value [6, 9]: 1.4 ppm | Astaxanthin/t-Capsanthin ratio [6, 10]: 61% | Colorant concentration in feed to achieve desired CF value [6, 10]: 1.7 ppm | Astaxanthin/t-Capsanthin ratio [6, 11]: 61% | Colorant concentration in feed to achieve desired CF value [6, 11]: 1.9 ppm | Astaxanthin/t-Capsanthin ratio [6, 12]: 61% | Colorant concentration in feed to achieve desired CF value [6, 12]: 2.2 ppm | Astaxanthin/t-Capsanthin ratio [6, 13]: 63% | Colorant concentration in feed to achieve desired CF value [6, 13]: 2.5 ppm | Astaxanthin/t-Capsanthin ratio [6, 14]: 64% | Colorant concentration in feed to achieve desired CF value [6, 14]: 3.0 ppm | Astaxanthin/t-Capsanthin ratio [6, 15]: 65% | Colorant concentration in feed to achieve desired CF value [6, 15]: 3.4 ppm | Astaxanthin/t-Capsanthin ratio [6, 16]: 63% | Colorant concentration in feed to achieve desired CF value [6, 16]: 4.0 ppm | Astaxanthin/t-Capsanthin ratio [6, 17]: 69% | Colorant concentration in feed to achieve desired CF value [6, 17]: 4.7 ppm | Astaxanthin/t-Capsanthin ratio [6, 18]: 64% | Colorant concentration in feed to achieve desired CF value [6, 18]: 6.3 ppm | Astaxanthin/t-Capsanthin ratio [6, 19]: 82% | Colorant concentration in feed to achieve desired CF value [6, 19]: 8.0 ppm | yolk colorant concentration, low-corn-content vs standard-corn-content feed [7]: greater than that in eggs obtained from chickens fed with the standard-corn-content feed
